Laboratory results from patent US7417034B2, “Pharmaceutically active uridine esters” (Trommsdorff GmbH & Co. KG Arzeneimittel, priority 2001, dated 2008).
Entries after “also recorded” stand apart in the source; their conditions may differ. Where two headings read alike, the source gives them in different places.

Experiments:
[1] = system: permanent MCA occlusion in NMRI mice; details: for effect on infarct area (in words): versus controls; for infarct area, Mean: evaluated 2 days after, vehicle only 29.89
Protocol: The neuroprotective effects of α-lipoic acid and more pronounced of dihydrolipoic acid are well known (P. Wolz, J. Krieglstein, Lipoic Acid in Health and Disease, New York, Basel, Hong Kong, Marcel Dekker Inc., 1997, pp. 205-225). Thus, dihydrolipoic acid was chosen as a positive control for comparison reasons.
Permanent middle cerebral artery (MCA) occlusion was performed in male NMRI mice (12 to 17 animals per group) according to the method described by Welsh et al. (J. Neurochem. 1987, 846-851). Briefly, after the mice were anesthetized with tribromoethanol (600 mg/kg intraperitoneally), a small hole was drilled in the skull to expose the middle cerebral artery. The stem of the middle cerebral artery and both branches were permanently occluded by electrocoagulation. Body temperature was maintained at 37° C.±1° C. with a heating lamp during the surgical procedure. Afterwards, the mice were kept at an environmental temperature of 30° C. for 2 hours after MCA occlusion.
For histologic evaluation, the mice were anesthetized again with tribromoethanol and perfused intraperitoneally with a 1.5% solution of neutral red (0.5 ml) 2 days after middle cerebral artery occlusion. The brains were removed and stored in a fixative (4% formalin in phosphate buffer solution, pH 7.4) for 24 hours.
The tissue on the brain surface unstained by neutral red was determined (in square millimeters) as infarcted surface area by means of an image analyzing system (Kontron, Eching, Germany) according to the publication of C. Backhauβ.
The injection of compound 5′, dihydrolipoic acid, and the vehicle only was performed intraperitoneally 1 hour before MCA occlusion. Compound 5′ and dihydrolipoic acid were dissolved in 25% macrogol 400 (vehicle). The injected volume was always 0.25-0.30 ml per mouse. Doses of 100, 150, and 500 mg/kg compound 5′ and 150 mg/kg dihydrolipoic acid were used. The control group received the vehicle (0.25-0.30 ml 25% macrogol 400 per mouse) only.
The differences between compound 5′-treated, dihydrolipoic acid-treated, and vehicle-treated animals were evaluated statistically according to the ANOVA and DUNCAN test.

[2] = system: hippocampal pyramid cells; assay: in-vitro Hippocampus cuts: glucose-induced over-sensitiveness of pyramid cells (population spike); assay type: cell-based, rats; details: 30 mM glucose; for IC50: amplitude of population spike, read-out: calculated IC50-value, reduction of glucose-induced over-sensitiveness; for concentration range of activity: population spike
Excerpt: The model used to determine the effect of the compounds of the present invention on treating diabetes and/or polyneuropathy comprises the use of in-vitro Hippocampus cuts for detecting the over-sensitiveness of pyramid cells due to the enhancement of the glucose concentration. Said over-sensitiveness could be antagonized dose-dependent by the use of a compound of the general formula (I).
The Hippocampus cuts of rats present a validated model for determination of interaction between a drug substance which is in direct contact with neuronal tissue. The interaction between a pharmaceutically active compound and the brain tissue can be examined directly, because of the maintenance of the three dimensional structure of the tissue within the in-vitro Hippocampus cut. Said compounds act on a special population of nerve cells, the pyramid cells of the Hippocampus. It is known that the synapse between pyramid cells and Schaffer-collaterals (which can be electrically stimulated) use the neurotransmitter glutamate for the process of signal transduction. The result of the electric stimulation, the so called population spike, represents the amount of activated pyramid cells. Other known models allow the in-vitro determination of a neuronal network only within a time frame of up to 8 hours. The advantage of this model is that neuronal network can be analyzed in-vitro over a much longer period after chemical or electric provocation of the cells. The cells are brought to an elevated level of stimulation which allows a long term measurement of pharmacologically active compounds under patho-physiologic conditions (W. Dimpfel et al., Antimicrobial Agents and Chemotherapy 1991, 1142-1146; W. Dimpfel et al., Eur. J. Med. Res. 1996, 1, 523-527).
Within the present method the level of stimulation was elevated by the use of an increased concentration of glucose in the superfusion medium in order to measure the antagonistic effect of the compounds of the present invention. Because of the fact that α-lipoic acid had been applied to this method (W. Dimpfel et al., Eur. J. Med. Res. 1996, 1, 523-527), compound 5′ was selected as a close related compound in order to produce reasonable results when comparing α-lipoic acid and uridine with compound 5′. Thus, α-lipoic acid and uridine were selected as reference.
21 adult male CD rats had been used within the present studies. The Hippocampus was isolated after anesthetization and exsanguination of the test animals. The middle part of the Hippocampus was fixed by means of a glue in phosphate-buffered saline (NaCl: 124 mM, KCl: 5 mM, CaCl2: 2 mM, MgSO4: 2 mM, NaH2PO4: 1.25 mM, NaHCO3: 26 mM, glucose: 10 mM; control solution: ACSF; Carl Roth, Karlsruhe, Germany). The Hippocampus was subsequent cut into slides of […] by means of a Vibratom (Rhema Labortechnik). The Hippocampus cuts were stored at least one hour before the test runs in an incubation chamber under carbogen (S. J. Schiff, G. G. Somjen, Brain Research 1985, 345, 279-284).
The experiment was carried out in a so called “Base Unit with Haas Top” (Medical Systems Corporation, U.S.A.) at a temperature of 35° C. according to the protocol of H. L. Haas and R. W. Greene (Neurotransmitter and cortical function; ed. M. Avoli, T. A. Reader, R. W. Dykes and P. Gloor, pp. 483-494, Plenum Publishing Corp.). The Hippocampus cut was placed on a piece of gauze and perfused by means of peristaltic pumps. The test apparatus was flushed with carbogen (flow rate: 200 ml per hour) in order to maintain the necessary oxygen supply.
The CA2-region was stimulated by means of a stimulus generator (laboratory computer, Pro Science) and a bipolar concentric steel electrode (Rhodes Medical Systems, U.S.A.). A pulse width of 200 μs was used and the amperage was constantly kept at 200 μA. The stimulus generator released four single stimulation signals within intervals of 20 seconds which released a total number of four population spikes in the Hippocampus cut. […]

[3] = system: dopamine and DOPAC concentration in the Striatum; assay: Dopamine and DOPAC concentration in rat Striatum, sodium malonate neurotoxicity model; assay type: in vivo, Wistar rats
Excerpt: (§1) This example was selected to determine the effect of the compounds of the present invention on the concentration of dopamine its metabolite 3,4-dihydroxyphenyl acetic acid (DOPAC) and 5-hydroxytryptamine (5-HT or Serotonin) and its metabolite 5-hydroxyindol acetic acid (5-HIAA) in the substantia nigra and the Striatum of Wistar rats (Charles River, Sulzbach Rosenberg).
(§2) Said two brain regions were selected in order to examine dopaminergic neurons, because it is well known that said neurons are sensitive to neurotoxines which may cause M. Parkinson, Alzheimer, and Chorea Huntington. The method as described below was used to determine degenerative processes. Sodium malonate was used as a neurotoxic substance within said method.
It is known that sodium malonate increases the release von dopamine in the Striatum of the test animals. Groups of six Wistar rats each have been used as test animals. Thus, the dopamine concentration can be used as an indicator in order to determine the harmful effect of neurotoxines.
100 mg of compound 5′ were dissolved in 5 ml 50% propan-1,2-diol (Merck, Darmstadt). Four 5 ml portions of compound 5′ were administered intraperitoneal to the test animals. The first portion was administered in the evening of the first test day, the second portion during the next morning, the third portion in the evening of the second test day and the late portion during the morning of the third test day. Thirty minutes after the last application of compound 5′ 2 μmol sodium malonate dissolved in physiologic sodium chloride solution were injected into the left Striatum by means of a precision pump (flow rate 0.5 μl/min.) after having anesthetized the rats (Ketamin: 80 mg/kg and Xylasin: 6-10 mg/kg).
(§3) Four days after sodium malonate application, the Striatum and the treated and untreated part of the substantia nigra was separately excised, weighted, homogenized with perchloric acid, and centrifuged. Aliquots of the supernatants were subsequently subjected to HPLC and by the means of HPLC-ELCD the amount of dopamine, DOPAC, 5-HT, 5-HIM, and 3-methoxytyramine was […] measured.

[4] = system: 5-HT and 5-HIAA level in substantia nigra; assay: 5-HT and 5-HIAA level in rat substantia nigra; assay type: in vivo, Wistar rats; details: four i.p. portions
Excerpt: as §1, §2
100 mg of compound 5′ were dissolved in 5 ml 50% propan-1,2-diol (Merck, Darmstadt). Four 5 ml portions of compound 5′ were administered intraperitoneal to the test animals. […]
as §3

[5] = 150 mg/kg intraperitoneally 1 hour before MCA occlusion
[6] = compound alone, four i.p. portions, p<0.05
[7] = 2 μmol sodium malonate injected into left Striatum, four days after, p<0.001

SMILES: O=C(O)CCCC[C@@H](S)CCS (racemic) [dihydrolipoic acid, reference compound]
- effect on infarct area (in words) ([1]; 150 mg/kg i.p.): no effect at all
- infarct area, Mean [1, 5]: 27.94 square millimeters

SMILES: O=C(CCCCC(S)CCS)OC[C@H]1O[C@@H](n2ccc(=O)[nH]c2=O)[C@H](O)[C@@H]1O (stereo partly drawn) [Compound 5′, (2′R,3′S,4′R,5′R)-6,8-Dimercapto-octanoic acid 5′-(2,4-dioxo-3,4-dihydro-2H-pyrimidine-1-yl)-3′,4′-dihydroxy-tetrahydrofuran-2′-ylmethyl ester]
- reduction of the elevated stimulation level / over-sensitiveness (in words) ([2]; rat Hippocampus cuts): able to reduce dose-dependent the elevated stimulation level; also recorded: most effectively treated; also recorded: able to significantly reduce the increased over-sensitiveness
- IC50 ([2]; rat Hippocampus cuts): 5 µM
- concentration range of activity ([2]; rat Hippocampus cuts): 1 to 25 µM
- infarct area, Mean ([1]; 100 mg/kg intraperitoneally 1 hour before MCA occlusion): 26.22 square millimeters
- infarct area, Mean [1, 5]: 27.00 square millimeters
- effect on infarct area (in words) ([1]; 500 mg/kg i.p.): no longer statistically reduced; also recorded: only a slight neuroprotective effect
- infarct area, Mean ([1]; 500 mg/kg intraperitoneally 1 hour before MCA occlusion): 28.24 square millimeters
- effect on infarcted area (in words) ([1]; lowest dose, 100 mg (100 mg/kg) i.p., versus vehicle): significantly reduced the infarcted area; also recorded: most pronounced
- toxic effects in mice ([1]; mice of the MCA occlusion study, 100-500 mg/kg i.p.): no toxic effects could be detected
- compensation of malonate-induced dopamine depletion in rat striatum (in words) ([3]; FIG. 4, relatively low concentrations): can almost be compensated
- change of the concentration of DOPAC in the Striatum [3, 6]: +10%
- change of the concentration of dopamine in the Striatum [3, 6]: +18%
- more dopamine in comparison to the application of malonate only ([3]; compound i.p. together with 2 μmol sodium malonate into left Striatum): +44%
- 5-HT concentration in rat substantia nigra (in words) ([4]; FIG. 5a): significantly increase; also recorded: increased dramatically
- 5-HIAA level in rat substantia nigra (in words) ([4]; FIG. 5b): significantly increase; also recorded: increased dramatically

SMILES: O=C(CCCC[C@@H]1CCSS1)OC[C@H]1O[C@@H](n2ccc(=O)[nH]c2=O)[C@H](O)[C@@H]1O [Compound R-5, (2′R,3R,3′S,4′R,5′R)-5-[1,2]Dithiolan-3-yl-pentanoic acid 5′-(2,4-dioxo-3,4-dihydro-2H-pyrimidine-1-yl)-3′,4′-dihydroxy-tetrahydrofuran-2′-ylmethyl ester]
- IC50 ([2]; rat Hippocampus cuts): 8 µM
- concentration range of activity ([2]; rat Hippocampus cuts): 1 to 15 µM

SMILES: O=C(CCCC[C@H]1CCSS1)OC[C@H]1O[C@@H](n2ccc(=O)[nH]c2=O)[C@H](O)[C@@H]1O [Compound S-5, (2′R,3S,3′S,4′R,5′R)-5-[1,2]Dithiolan-3-yl-pentanoic acid 5′-(2,4-dioxo-3,4-dihydro-2H-pyrimidine-1-yl)-3′,4′-dihydroxy-tetrahydrofuran-2′-ylmethyl ester]
- IC50 ([2]; rat Hippocampus cuts): 4 µM
- concentration range of activity ([2]; rat Hippocampus cuts): 1 to 10 µM

SMILES: O=C([O-])CC(=O)[O-].[Na+].[Na+] [malonate, sodium malonate, reference compound]
- change of the concentration of DOPAC [3, 7]: −30%
- change of the concentration of dopamine [3, 7]: −44%

SMILES: O=c1ccn([C@@H]2O[C@H](CO)[C@@H](O)[C@H]2O)c(=O)[nH]1 [uridine]
- IC50 ([2]; Rattus norvegicus): 40 µM
- reduction of the elevated stimulation level / over-sensitiveness (in words) ([2]; rat Hippocampus cuts): able to reduce dose-dependent the elevated stimulation level; also recorded: only weaker effects; also recorded: much weaker effects

SMILES: O=C(O)CCCCC1CCSS1 (stereo not drawn) [α-lipoic acid, reference compound]
- reduction of the elevated stimulation level / over-sensitiveness (in words) ([2]; rat Hippocampus cuts): able to reduce dose-dependent the elevated stimulation level; also recorded: only weaker effects; also recorded: much weaker effects
- IC50 ([2]; rat Hippocampus cuts): ~200 µM
- concentration range of activity ([2]; rat Hippocampus cuts): ≤ 400 µM
